# Measured values as given in patent publication US11926641B2, “Phosphonamidate butyrophilin ligands” (UNIVERSITY OF IOWA RESEARCH FOUNDATION, priority 2018, dated 2024).
# Where two headings read alike, the source gives them in different places.
# How the values were obtained:
# [1] = system: human Vγ9Vδ2 T cells; test: Expansion of Vγ9Vδ2 T cells from peripheral blood mononuclear cells; type: cell-based; conditions: ratio of expansion EC50 values
# Experimental: Expansion of Vγ9Vδ2 T cells. […] Negative controls contained cells with interleukin 2 in the absence of test compounds. […] All experiments were performed at least three times using cells from at least two different donors.
# [2] = Stability in 50% pooled human plasma in PBS (LCMS); type: in vitro ADME
# Experimental: Stability studies. Pooled human plasma was diluted to 50% with phosphate buffered saline at pH 7.5. Test compounds were added at a final concentration of 100 μM in a volume of 100 μL. Compounds were incubated for various times as indicated in the text, then extracted with 300 μL of LCMS grade acetonitrile and vigorous mixing. Insoluble debris was pelleted by centrifugation at 10,000 rcf for 2 minutes. 10 μL of the extract was evaluated by LCMS with a Waters Synapt G2-Si Mass Spectrometer in positive mode using a gradient of water and acetonitrile and a C18 column. The gradient started at 25% acetonitrile then increased to 80% acetonitrile over 9 minutes and held there for 1 minute before re-equilibration. […] The integrated values of these peaks were compared to those of t=0 minutes in plasma for each test compound and expressed as a fraction of the initial compound that was remaining at a given time point.
# [3] = in vitro; type: cell-based; conditions: human
# Experimental: Cell viability. Viability assays were performed using K562 cells with various concentrations of test compounds. K562 cells (0.5×10^4 cells in 100 μL of RPMI media) were distributed into each well of a 96-well plate. Phosphonamidates were added for 72 hours, during the last 2 hours the cell-QB reagent was added, following which signals were quantified with a fluorescence plate reader. Viable cells were expressed as a percentage of untreated control cells after subtraction of a media-only blank.
# [4] = system: Vγ9Vδ2 T cells; test: ELISA for interferon γ: Vγ9Vδ2 T cells mixed with compound-loaded K562 cells; type: cell-based; conditions: Homo sapiens; K562 cells loaded for 4 hours with test compound; 3:1 effector:target; 20 hours; read-out: EC50 [μM] (95% CI), interferon γ production by Vγ9Vδ2 T cells
# Experimental: ELISA for interferon γ. Interferon γ was measured by ELISA as previously described and according to manufacturer's directions (see Kilcollins, A. M., et al., J. Immunol. 2016, 197, 419-428; and Shippy, R. R., et al., J Med. Chem. 2017, 60, 2373-2382. Briefly, K562 cells were treated with test compounds for 4 hours, washed, then mixed with V79Vδ2 T cells that had been purified by negative selection. Each well contained a 3:1 effector: target ratio in 200 μL. After 20 hours, the concentration of interferon γ in the supernatant was determined. Data for representative compounds of the invention is shown in Table 2 (see FIG. 4).
# [5] = cited from earlier work
# [6] = 72 hour, read-out: IC50 [μM], cytotoxicity against K562 cells
SMILES,Fold difference vs cmpd 10 [1],Fold difference vs cmpd 11 [1],t1/2 [2] [h],"IC50 at 72 h [3, 6] [µM]",EC50 [4] [µM],IC50 at 72 h [3] [µM],stability in plasma [5],IC50 [3] [nM]
"COC(=O)CNP(=O)(CC/C=C(\C)CO)Oc1ccccc1 (centres unmarked) [Compound 1, Methyl 2-[[[(E)-5-hydroxy-4-methyl-pent-3-enyl]-phenoxy-phosphoryl]amino]acetate]",2700,3.6,>24,> 100,0.46,,,
"Oc1cccc2ccccc12 [Compound 1-naphthol, 1-naphthol, reference compound]",,,,,,> 100,,
"CCOC(=O)CNP(=O)(CC/C=C(\C)CO)Oc1ccccc1 (centres unmarked) [Compound 2, Ethyl 2-[[[(E)-5-hydroxy-4-methyl-pent-3-enyl]-phenoxy-phosphoryl]amino]acetate]",,,,> 100,0.17,,,
"Oc1ccc2ccccc2c1 [Compound 2-naphthol, 2-naphthol, reference compound]",,,,,,> 100,,
"C/C(=C\CCP(=O)(NCC(=O)OC(C)C)Oc1ccccc1)CO (centres unmarked) [Compound 3, Isopropyl 2-[[[(E)-5-hydroxy-4-methyl-pent-3-enyl]-phenoxy-phosphoryl]amino]acetate]",3600,4.9,>24,23,0.74,,,
"COC(=O)CNP(=O)(CC/C=C(\C)CO)Oc1cccc2ccccc12 (centres unmarked) [Compound 4, Methyl 2-[[[(E)-5-hydroxy-4-methyl-pent-3-enyl]-(1-naphthyloxy)phosphoryl]amino]acetate]",9100,12,>24,40,0.13,,,
"CCOC(=O)CNP(=O)(CC/C=C(\C)CO)Oc1cccc2ccccc12 (centres unmarked) [Compound 5, Ethyl 2-[[[(E)-5-hydroxy-4-methyl-pent-3-enyl]-(1-naphthyloxy)phosphoryl]amino]acetate]",11000,15,>24,24,0.062,,,
"C/C(=C\CCP(=O)(NCC(=O)OC(C)C)Oc1cccc2ccccc12)CO (centres unmarked) [Compound 6, Isopropyl 2-[[[(E)-5-hydroxy-4-methyl-pent-3-enyl]-(1-naphthyloxy)phosphoryl]amino]acetate]",12000,16,>24,> 100,0.29,,,
"COC(=O)CNP(=O)(CC/C=C(\C)CO)Oc1ccc2ccccc2c1 (centres unmarked) [Compound 7, Methyl 2-[[[(E)-5-hydroxy-4-methyl-pent-3-enyl]-(2-naphthyloxy)phosphoryl]amino]acetate]",6900,9.3,>24,> 100,0.12,,,
"CCOC(=O)CNP(=O)(CC/C=C(\C)CO)Oc1ccc2ccccc2c1 (centres unmarked) [Compound 8, Ethyl 2-[[[(E)-5-hydroxy-4-methyl-pent-3-enyl]-(2-naphthyloxy)phosphoryl]amino]acetate]",7500,10,>24,28,0.093,,,
"C/C(=C\CCP(=O)(NCC(=O)OC(C)C)Oc1ccc2ccccc2c1)CO (centres unmarked) [Compound 9, Isopropyl 2-[[[(E)-5-hydroxy-4-methyl-pent-3-enyl]-(2-naphthyloxy)phosphoryl]amino]acetate]",4900,6.6,>24,> 100,0.21,,,
"C/C(=C\CCP(=O)(OCOC(=O)C(C)(C)C)OCOC(=O)C(C)(C)C)CO [Compound 104, reference compound]",,,0.14,,,,,
C/C(=C\COP(=O)(O)OP(=O)(O)O)CO [HMBPP],,,,,,,not stable in plasma,
"Oc1ccccc1 [Phenol, reference compound]",,,,,,,,> 100000
